Experiments:
Format in all cases: cell-based
[1] = system: H1975 (EGFR double mutation) gefitinib-resistant NSCLC cells; experiment: cell viability assay, H1975
Source text: (§1) Table 1 summarizes the IC50 values of five different cell lines treated with TMS.

[2] = system: H820 (EGFR double mutation) gefitinib-resistant NSCLC cells; experiment: cell viability assay, H820; details: NCI-H820
Source text: as §1

[3] = system: A549 (EGFR wild-type) NSCLC cells; experiment: cell viability assay, A549; details: Homo sapiens
Source text: as §1

[4] = system: H358 (EGFR wild-type) NSCLC cells; experiment: cell viability assay, H358; details: Homo sapiens, NCI-H358
Source text: as §1

[5] = system: BEAS-2B (normal epithelial cells); experiment: cell viability assay, BEAS-2B; details: Homo sapiens
Source text: as §1

[6] = system: H1975 cells; experiment: cell morphology and flow cytometry (apoptosis), H1975; details: gefitinib-resistant NSCLC cell lines (H1975), FIG. 2
[7] = system: mammalian target of rapamycin (mTOR); experiment: proteomic analysis of apoptosis markers; details: proteomics, gefitinib-resistant NSCLC cells, FIG. 3
Source text: FIG. 3 is a schematic diagram showing the proteomic analysis result of TMS on different markers involved in apoptosis of gefitinib-resistant non-small-cell lung cancer cells.

[8] = system: H1975 cells; experiment: relative cell viability, TMS with/without compound c, H1975
[9] = system: H1975 cells; experiment: cell morphology, flow cytometry and relative cell viability, TMS with/without JNK inhibitor, H1975; details: TMS alone, groups: control, FIG. 6
[10] = system: EGFR PY1173; experiment: immunoblot analysis of EGFR PY1173, H1975 cell lysate
Description: (§2) Moreover, the inhibition of PY1173 activation happens as early as in 1 hour after TMS treatment.

[11] = system: EGFR PY1173; experiment: immunoblot analysis of EGFR PY1173, A549 cell lysate; details: A549 cells
Description: as §2

Structure (SMILES) | selectivity for gefitinib-resistant NSCLC cells over normal and EGFR wild-type cells ([1]; H1975 and H820 versus BEAS-2B, A549, H358) | IC50 ([1]; Homo sapiens, NCI-H1975, H1975 (EGFR double mutation), cell viability) [µM] | IC50 [2] [µM] | IC50 [3] [µM] | IC50 [4] [µM] | IC50 [5] [µM] | induction of apoptosis [6] | effect on mTOR [7] | apoptosis induction / relative cell viability among four treatment groups ([8]; TMS alone (40 nM), groups: control, compound c, TMS, FIG. 4) | apoptosis induction / relative cell viability among four treatment groups [9] | time to inhibition of PY1173 activation after TMS treatment ([10]; H1975, fixed concentration of TMS) [h] | activation of EGFR PY1173 ([10]; TMS at 40, 60 and 80 nM, gefitinib-resistant NSCLC cells (H1975)) | inhibitory effect on EGFR (PY1173) [11] | suppression of EGFR PY1173 ([11]; 10-time higher concentration of TMS) | effect of compound c on the effect of TMS ([8]; H1975, FIG. 4)
COc1ccc(/C=C\c2cc(OC)c(OC)c(OC)c2)cc1 [TMS, (Z)3,4,5,4′-tetramethoxystilbene] | selectivity on gefitinib-resistant NSCLC cells | 0.0572 ± 0.0135 | 0.136 ± 0.0359 | > 0.4 | > 0.4 | > 0.4 | inducing apoptosis | significantly inhibited | most effective in inducing apoptosis | most effective in inducing apoptosis | ≤ 1 | inhibits the activation of EGFR PY1173 | not detected | no suppression of EGFR PY1173 was observed | –
c1cc(-c2cnn3cc(-c4ccc(OCCN5CCCCC5)cc4)cnc23)ccn1 [compound c, reference compound] | – | – | – | – | – | – | – | – | – | – | – | – | – | – | counteracts the effect of TMS

Source: patent US9597299B2, “Method for treating gefitinib-resistant non-small-cell lung cancer” (Macau University of Science and Technology, priority 2014, dated 2017)
